Target: human σ1 receptor and human μ-opioid receptor
Assay: Human σ1 receptor and human μ-opioid receptor radioligand assays (dual binding)
Conditions: combined class for Ki-μ ([3H]-DAMGO, transfected CHO-K1 membranes) and Ki-σ1 ([3H](+)-pentazocine, transfected HEK-293 membranes)

Row | SMILES | Ki [µM]
1 | O=C(c1ccccn1)N1CCOCC12CCN(CCc1ccccc1)CC2 [Example 11, (9-phenethyl-4-oxa-1,9-diazaspiro[5.5]undecan-1-yl)(pyridin-2-yl)methanone] | ≥ 0.5
2 | O=C(c1ccncc1)N1CCOCC12CCN(CCc1ccccc1)CC2 [Example 13, (9-phenethyl-4-oxa-1,9-diazaspiro[5.5]undecan-1-yl)(pyridin-4-yl)methanone] | ≥ 0.5
3 | O=C(c1cccnc1)N1CCOCC12CCN(CCc1ccccc1)CC2 [Example 14, (9-phenethyl-4-oxa-1,9-diazaspiro[5.5]undecan-1-yl)(pyridin-3-yl)methanone] | ≥ 0.5
4 | O=C(c1cscn1)N1CCOCC12CCN(CCc1ccccc1)CC2 [Example 16, (9-phenethyl-4-oxa-1,9-diazaspiro[5.5]undecan-1-yl)(thiazol-4-yl)methanone] | ≥ 0.5
5 | O=C(Cc1ccccn1)N1CCOCC12CCN(CCc1ccccc1)CC2 [Example 17, 1-(9-phenethyl-4-oxa-1,9-diazaspiro[5.5]undecan-1-yl)-2-(pyridin-2-yl)ethanone] | ≥ 0.5
6 | O=C(Cc1ccncc1)N1CCOCC12CCN(CCc1ccccc1)CC2 [Example 19, 1-(9-phenethyl-4-oxa-1,9-diazaspiro[5.5]undecan-1-yl)-2-(pyridin-4-yl)ethanone] | ≥ 0.5
7 | O=C(c1cncs1)N1CCOCC12CCN(CCc1ccccc1)CC2 [Example 20, (9-phenethyl-4-oxa-1,9-diazaspiro[5.5]undecan-1-yl)(thiazol-5-yl)methanone] | ≥ 0.5
8 | O=C(Cc1cccnc1)N1CCOCC12CCN(CCc1ccccc1)CC2 [Example 22, 1-(9-phenethyl-4-oxa-1,9-diazaspiro[5.5]undecan-1-yl)-2-(pyridin-3-yl)ethanone] | ≥ 0.5
9 | Fc1cnccc1CN1CCOCC12CCN(CCc1ccccc1)CC2 [Example 31, 1-((3-fluoropyridin-4-yl)methyl)-9-phenethyl-4-oxa-1,9-diazaspiro[5.5]undecane] | ≥ 0.5
10 | O=[N+]([O-])c1cccc(CCN2CCC3(CC2)COCCN3c2ccccc2)c1 [Example 41, 9-(3-nitrophenethyl)-1-phenyl-4-oxa-1,9-diazaspiro[5.5]undecane] | ≥ 0.5
11 | O=C(CN1CCC2(CC1)COCCN2C(=O)c1ccccc1)c1ccccc1 [Example 45, 2-(1-benzoyl-4-oxa-1,9-diazaspiro[5.5]undecan-9-yl)-1-phenylethanone] | ≥ 0.5
12 | Nc1cccc(CCN2CCC3(CC2)COCCN3c2ccccc2)c1 [Example 50, 3-(2-(1-phenyl-4-oxa-1,9-diazaspiro[5.5]undecan-9-yl)ethyl)aniline] | ≥ 0.5
13 | O=C(c1ccccc1)N1CCOCC12CCN(CC(O)c1ccccc1)CC2 (stereo not shown) [Example 51, (9-(2-hydroxy-2-phenylethyl)-4-oxa-1,9-diazaspiro[5.5]undecan-1-yl)(phenyl)methanone] | ≥ 0.5

— US10022359B2, “1,9-diazaspiro undecane compounds having multimodal activity against pain” (LABORATORIOS DEL DR. ESTEVE S.A., priority 2014, dated 2018)
